{"source": "patent US6300350A", "about": "“Treatment of emphysema using RARy selective retinoid agonists” (priority 2000, dated 2001)", "key": {"elastase damaged rats": {"system": "elastase damaged rats", "test": "Pulmonary gas exchange in elastase damaged rats", "assay_type": "in vivo", "method": "Pulmonary and arterial blood gases were determined in elastase damaged rats±retinoid treatment prior to termination of study. Rats were placed under deep anesthesia using pentobarbital (50 mg/kg, i.p. and a tracheal cannula (PE 240) was inserted. The rats were artificially ventilated (f=90, TV=approx 0.5 ml/100 g BW) using a small animal respiratory pump (Harvard). For each rat, the pump parameters were adjusted to establish an arterial CO2 level for the pulmonary artery (PCO2) of 30-35 torr. Arterial blood samples (approx 0.2 ml) were taken from the abdominal aorta (AO2) and immediately analyzed by pHOx blood gas. Data are presented as percent (%) recovery relative to elastase +vehicle treated rats."}, "tropoelastin gene": {"system": "tropoelastin gene", "test": "RAR transactivation of steady state tropoelastin gene in normal human lung fibroblasts (CCD-16Lu)", "assay_type": "cell-based", "method": "Transactivation of the tropoelastin gene in normal human lung fibroblasts (CCD-16Lu) was performed as described below. Cells were grown to confluence at which time fresh media +/- ATRA or selective retiniod was added to the basal culture. ATRA and/or selective retiniods were used at a concentration of 1×10^-7 M. The cell layer was lysed using a guanidinium-based buffer (TRIZOL/Sigma) for RNA extraction and analysis. Amplification of tropoelastin and GAPDH RNA was performed by standard quantitative RT-PCR (TAQMAN, Perken/Elmer) using appropriate selective primers. Tropo-elastin gene expression was normalized to the expression of standard house-keeping gene (GAPDH).\nSamples were run in triplicate."}}}
{"smiles": "CCCCCCc1cc2c(cc1/C=C/c1ccc(C(=O)O)cc1)C(C)(C)CCC2(C)C", "note": "[RAR Agonist 3]", "values": [{"measurement": "PCO2, recovery relative to elastase + vehicle treated rats", "setting": "elastase damaged rats; 0.01 mg/kg", "result": 84.6, "unit": "%"}, {"measurement": "PO2, recovery relative to elastase + vehicle treated rats", "setting": "elastase damaged rats; 0.01 mg/kg", "result": 49.8, "unit": "%"}, {"measurement": "AO2, recovery relative to elastase + vehicle treated rats", "setting": "elastase damaged rats; abdominal aorta, 0.01 mg/kg", "result": 100, "unit": "%"}, {"measurement": "gas exchange (in words)", "setting": "elastase damaged rats; elastase-damaged rats", "result": "more effective and more potent than the pan agonist (ATRA)"}, {"measurement": "Tropo-elastin Expression", "setting": "tropoelastin gene; CCD-16Lu, 1×10^-7 M, RT-PCR, triplicate, untreated control 30.90", "result": "68.58 (Elastin/GAPDH) × 10^5"}, {"measurement": "tropoelastin gene induction (in words)", "setting": "tropoelastin gene; human lung fibroblasts, compared to the control", "result": "markedly induces tropoelastin gene induction"}]}
